Data reported in patent publication US11254700B2, “GSK-3β inhibitors and use thereof in methods of treatment” (UNIVERSITY OF HAWAII, priority 2017, dated 2022).
Entries after “also recorded” stand apart in the source; their conditions may differ.

How the values were obtained:
in vitro = conditions: PAMPA, 5 h, 20 μM, pH 7.4
Summary of the method: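 Passive diffusion from donor to acceptor compartment through a tri-layer phospholipid pre-coated membrane, measured in quadruplicate.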

Aβ42 = assay: Brain Aβ42 by ELISA; type: in vivo, mouse; conditions: vs model group
Description: The backgrounds of all mice (APP/PS1 dual transgenic mice and wild-type mice with littermates) were C57/B6. Transgenic mice were randomly divided into three groups (n=20 for each group), and wild-type mice were used as controls (n=20). The control group and one group of transgenic mice (model group) were given sterilized ultrapure water, and the other two groups of transgenic mice received low- and high-dose Isoorientin (20 and 50 mg/kg, respectively) via intragastric administration for 60 days. Throughout the study-period, animals were housed in a controlled environment (temperature, 22° C.; humidity, 50-60%, 12-hour light/12-hour dark schedules), with free access to rodent chow and water. […] For quantitation purposes, a highly specific and sensitive mouse Aβ42 ELISA kit was used (Invitrogen Corporation, Carlsbad, Calif.). Brain tissue protein was extracted by homogenizing about 100 mg brain tissue with an 8-fold mass quantity of cold 5 M guanidine-HCl and 50 mM Tris (pH 8.0), and incubating the homogenate at room temperature for 3.5 hours. […] Soluble and insoluble brain samples including cortex and hippocampus were analyzed for Aβ levels using the mouse Aβ42 ELISA kit, according to the manufacturer's instructions. […] The obtained values were corrected for the wet weight of each brain sample and expressed as μg/mg brain.

Question: For `O=c1cc(-c2ccc(O)c(O)c2)oc2cc(O)c([C@@H]3O[C@H](CO)[C@@H](O)[C@H](O)[C@H]3O)c(O)c12` [Compound 1, isoorientin], which Pe (in vitro) is on record?
Answer: 0.51 ± 0.01 ×10^−6 cm/s

Question: What about the “R (percent recovery)” value (in vitro) of the same molecule?
Answer: 48%

Question: What about the “Aβ42 in brain (cortex+hippocampus)” value (Aβ42; high-dose group 50 mg/kg, oral, 60 days) of the same molecule?
Answer: significantly lower; also recorded: significant decrease

Question: And the “Aβ42 in brain (cortex+hippocampus)” value (Aβ42; low-dose group)?
Answer: no statistically significant difference
